This passage reports EC50 results from patent US8796466B2, “Hepatitis C virus inhibitors” (Bristol-Myers Squibb Company, priority 2009, dated 2014).

What is called EC50 is the midpoint of the concentration-response curve.

This assay relates to HCV 1b genotype. The assay is described as follows: HCV Replicon assay (HCV 1b genotype). To be noted: Hepatitis C virus, HCV 1b genotype replicon. Type of assay: cell-based, Hepatitis C virus. The procedure, abridged: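 HCV-neo replicon cells, wild-type plus lines carrying NS5A-region mutations, were exposed to compound; luciferase-reporter replicon variants were also used.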

Setting [1] is: class symbol, read-out: Range (EC50 values against HCV 1b).
Where [2] appears, read: Effective 50% inhibitory concentration, read-out: 1b EC50.

Read-outs that look alike come from different tables or passages of the source.

On to `COC(=O)N[C@H](C(=O)N1[C@H]2C[C@@]2(C)C[C@H]1c1ncc(-c2ccc(C#Cc3ccc(-c4cnc([C@@H]5C[C@]6(C)C[C@@H]6N5C(=O)[C@@H](NC(=O)OC)C(C)C)[nH]4)cc3)cc2)[nH]1)C(C)C` [Example M12.9, methyl ((1S)-1-(((1S,3S,5S)-3-(4-(4-((4-(2-((1S,3S,5S)-2-((2S)-2-((methoxycarbonyl)amino)-3-methylbutanoyl)-5-methyl-2-azabicyclo[3.1.0]hex-3-yl)-1H-imidazol-4-yl)phenyl)ethynyl)phenyl)-1H-imidazol-2-yl)-5-methyl-2-azabicyclo[3.1.0]hex-2-yl)carbonyl)-2-methylpropyl)carbamate], for which the EC50 under setting [1] lay in the range of 0.002 to 0.099 nM.

For `COC(=O)N[C@H](C(=O)N1[C@@H]2C[C@@H]2C[C@H]1c1ncc(-c2ccc(/C=C/c3ccc(-c4cnc([C@@H]5C[C@H]6C[C@H]6N5C(=O)[C@@H](NC(=O)OC)C(C)C)[nH]4)cc3)cc2)[nH]1)C(C)C` [Example M13, methyl ((1S)-1-(((1R,3S,5R)-3-(4-(4-((E)-2-(4-(2-((1R,3S,5R)-2-((2S)-2-((methoxycarbonyl)amino)-3-methylbutanoyl)-2-azabicyclo[3.1.0]hex-3-yl)-1H-imidazol-4-yl)phenyl)vinyl)phenyl)-1H-imidazol-2-yl)-2-azabicyclo[3.1.0]hex-2-yl)carbonyl)-2-methylpropyl)carbamate], under setting [1], the EC50 is 0.002 to 0.099 nM.

Take `COC(=O)N[C@H](C(=O)N1[C@@H]2C[C@@H]2C[C@H]1c1nc(-c2ccc(/C=C/c3ccc(-c4c[nH]c([C@@H]5C[C@H]6C[C@H]6N5C(=O)[C@@H](NC(=O)OC)C5CCOCC5)n4)cc3)cc2)c[nH]1)C1CCOCC1` [Example M14, dimethyl ((E)-1,2-ethenediylbis(4,1-phenylene-1H-imidazole-4,2-diyl(1R,3S,5R)-2-azabicyclo[3.1.0]hexane-3,2-diyl((1S)-2-oxo-1-(tetrahydro-2H-pyran-4-yl)-2,1-ethanediyl)))biscarbamate]: the EC50 reads like this: under setting [2], 0.017 nM; under setting [1], 0.002 to 0.099 nM. As for `COC(=O)N[C@H](C(=O)N1[C@@H]2C[C@@H]2C[C@H]1c1nc(-c2ccc(/C=C/c3ccc(-c4c[nH]c([C@@H]5C[C@H]6C[C@H]6N5C(=O)[C@@H](NC(=O)OC)C5CCOCC5)n4)cc3)cc2)c[nH]1)C(C)C` [Example M15, methyl ((1S)-2-((1R,3S,5R)-3-(4-(4-((E)-2-(4-(2-((1R,3S,5R)-2-((2S)-2-((methoxycarbonyl)amino)-3-methylbutanoyl)-2-azabicyclo[3.1.0]hex-3-yl)-1H-imidazol-4-yl)phenyl)vinyl)phenyl)-1H-imidazol-2-yl)-2-azabicyclo[3.1.0]hex-2-yl)-2-oxo-1-(tetrahydro-2H-pyran-4-yl)ethyl)carbamate], under setting [1], the 50% effective concentration (EC50) was in the range of 0.002 to 0.099 nM. For `COC(=O)N[C@H](C(=O)N1CC(F)(F)C[C@H]1c1nc(-c2ccc(C#Cc3ccc(-c4c[nH]c([C@@H]5CC(F)(F)CN5C(=O)[C@@H](NC(=O)OC)C(C)C)n4)cc3)cc2)c[nH]1)C(C)C` [Example N1, methyl ((1S)-1-(((2S)-2-(4-(4-((4-(2-((2S)-4,4-difluoro-1-((2S)-2-((methoxycarbonyl)amino)-3-methylbutanoyl)-2-pyrrolidinyl)-1H-imidazol-4-yl)phenyl)ethynyl)phenyl)-1H-imidazol-2-yl)-4,4-difluoro-1-pyrrolidinyl)carbonyl)-2-methylpropyl)carbamate], under setting [1], the EC50 lay in the range of 0.002 to 0.099 nM. Turning to `COC(=O)N[C@H](C(=O)N1CC(F)(F)C[C@H]1c1ncc(-c2ccc(C#Cc3ccc(-c4cnc([C@@H]5CC(F)(F)CN5C(=O)[C@@H](NC(=O)OC)C5CCOCC5)[nH]4)cc3)cc2)[nH]1)C1CCOCC1` [Example N2, dimethyl (ethyne-1,2-diylbis(4,1-phenylene-1H-imidazole-5,2-diyl((2S)-4,4-difluoropyrrolidine-2,1-diyl)((1S)-2-oxo-1-(tetrahydro-2H-pyran-4-yl)ethane-2,1-diyl)))biscarbamate], the EC50 under setting [1] lay within 0.002 to 0.099 nM.

In the case of `COC(=O)N[C@H](C(=O)N1CC(F)(F)C[C@H]1c1ncc(-c2ccc(C#Cc3ccc(-c4cnc([C@@H]5CC(F)(F)CN5C(=O)[C@H](NC(=O)OC)C5CCOCC5)[nH]4)cc3)cc2)[nH]1)C1CCOCC1` [Example N3, methyl ((1R)-2-((2S)-2-(5-(4-((4-(2-((2S)-4,4-difluoro-1-((2S)-2-((methoxycarbonyl)amino)-2-(tetrahydro-2H-pyran-4-yl)acetyl)pyrrolidin-2-yl)-1H-imidazol-5-yl)phenyl)ethynyl)phenyl)-1H-imidazol-2-yl)-4,4-difluoropyrrolidin-1-yl)-2-oxo-1-(tetrahydro-2H-pyran-4-yl)ethyl)carbamate], the EC50 reads like this: under setting [2], 0.25 nM; under setting [1], 10 to 350 nM. With `COC(=O)N[C@@H](C(=O)N1CC(F)(F)C[C@H]1c1ncc(-c2ccc(C#Cc3ccc(-c4cnc([C@@H]5CC(F)(F)CN5C(=O)[C@H](NC(=O)OC)C5CCOCC5)[nH]4)cc3)cc2)[nH]1)C1CCOCC1` [Example N4, dimethyl (ethyne-1,2-diylbis(4,1-phenylene-1H-imidazole-5,2-diyl((2S)-4,4-difluoropyrrolidine-2,1-diyl)((1R)-2-oxo-1-(tetrahydro-2H-pyran-4-yl)ethane-2,1-diyl)))biscarbamate], the concentration giving a half-maximal response (EC50) under setting [2] was found to be 0.18 nM and the EC50 under setting [1] is 10 to 350 nM. As to `COC(=O)N[C@H](C(=O)N1CCCC[C@H]1c1ncc(-c2ccc(C#Cc3ccc(-c4cnc([C@@H]5CCCCN5C(=O)[C@@H](NC(=O)OC)C(C)C)[nH]4)cc3)cc2)[nH]1)C(C)C` [Example N6, methyl ((1S)-1-(((2S)-2-(4-(4-((4-(2-((2S)-1-((2S)-2-((methoxycarbonyl)amino)-3-methylbutanoyl)-2-piperidinyl)-1H-imidazol-4-yl)phenyl)ethynyl)phenyl)-1H-imidazol-2-yl)-1-piperidinyl)carbonyl)-2-methylpropyl)carbamate], under setting [1], the EC50 was in the range of 10 to 350 nM.

As to `COC(=O)N[C@H](C(=O)N1C[C@@H](O)C[C@H]1c1ncc(-c2ccc(C#Cc3ccc(-c4cnc([C@@H]5C[C@H](O)CN5C(=O)[C@@H](NC(=O)OC)C(C)C)[nH]4)cc3)cc2)[nH]1)C(C)C` [Example N7, methyl ((1S)-1-(((2S,4S)-4-hydroxy-2-(4-(4-((4-(2-((2S,4S)-4-hydroxy-1-((2S)-2-((methoxycarbonyl)amino)-3-methylbutanoyl)-2-pyrrolidinyl)-1H-imidazol-4-yl)phenyl)ethynyl)phenyl)-1H-imidazol-2-yl)-1-pyrrolidinyl)carbonyl)-2-methylpropyl)carbamate], the EC50 under setting [1] lay within 0.002 to 0.099 nM.

For the compound `COC(=O)N[C@H](C(=O)N1[C@H](c2ncc(-c3ccc(C#Cc4ccc(-c5cnc([C@@H]6C[C@@H]7C[C@@H]7N6C(=O)[C@@H](NC(=O)OC)C(C)C)[nH]5)cc4)cc3)[nH]2)C[C@@H]2C[C@@H]21)C(C)C` [Example N8, methyl((1S)-1-(((1S,3S,5S)-3-(4-(4-((4-(2-((1S,3S,5S)-2-((2S)-2-((methoxycarbonyl)amino)-3-methylbutanoyl)-2-azabicyclo[3.1.0]hex-3-yl)-1H-imidazol-4-yl)phenyl)ethynyl)phenyl)-1H-imidazol-2-yl)-2-azabicyclo[3.1.0]hex-2-yl)carbonyl)-2-methylpropyl)carbamate], the EC50 under setting [1] was 10 to 350 nM. Take `COC(=O)N[C@H](C(=O)N1[C@H](c2ncc(-c3ccc(C#Cc4ccc(-c5cnc([C@@H]6C[C@@H]7C[C@@H]7N6C(=O)[C@@H](NC(=O)OC)C6CCOCC6)[nH]5)cc4)cc3)[nH]2)C[C@@H]2C[C@@H]21)C1CCOCC1` [Example N9, dimethyl (1,2-ethynediylbis(4,1-phenylene-1H-imidazole-4,2-diyl(1S,3S,5S)-2-azabicyclo[3.1.0]hexane-3,2-diyl((1S)-2-oxo-1-(tetrahydro-2H-pyran-4-yl)-2,1-ethanediyl)))biscarbamate]: the EC50 under setting [1] lay in the range of 0.002 to 0.099 nM. For the compound `CN(C)[C@@H](C(=O)N1CCC[C@H]1c1ncc(-c2ccc(Oc3ccc(-c4cnc([C@@H]5CCCN5C(=O)[C@@H](c5ccccc5)N(C)C)[nH]4)cc3)cc2)[nH]1)c1ccccc1` [OL-1, (1R)-2-((2S)-2-(4-(4-(4-(2-((2S)-1-((2R)-2-(dimethylamino)-2-phenylacetyl)-2-pyrrolidinyl)-1H-imidazol-5-yl)phenoxy)phenyl)-1H-imidazol-2-yl)-1-pyrrolidinyl)-N,N-dimethyl-2-oxo-1-phenylethanamine], the EC50 under setting [1] lay within 1 to 9.9 nM. `O=C([C@H](O)c1ccccc1)N1CCC[C@H]1c1nc(-c2ccc(Oc3ccc(-c4cnc([C@@H]5CCCN5C(=O)[C@H](O)c5ccccc5)[nH]4)cc3)cc2)c[nH]1` [OL-2, (1R)-2-((2S)-2-(4-(4-(4-(2-((2S)-1-((2R)-2-hydroxy-2-phenylacetyl)-2-pyrrolidinyl)-1H-imidazol-5-yl)phenoxy)phenyl)-1H-imidazol-2-yl)-1-pyrrolidinyl)-2-oxo-1-phenylethanol]: the EC50 runs as follows: under setting [2], 9.1 nM; under setting [1], 1 to 9.9 nM. Turning to `COC(=O)N[C@@H](C(=O)N1CCC[C@H]1c1nc(-c2ccc(Oc3ccc(-c4c[nH]c([C@@H]5CCCN5C(=O)[C@H](NC(=O)OC)c5ccccc5)n4)cc3)cc2)c[nH]1)c1ccccc1` [OL-3, dimethyl (oxybis(4,1-phenylene-1H-imidazole-4,2-diyl(2S)-2,1-pyrrolidinediyl((1R)-2-oxo-1-phenyl-2,1-ethanediyl)))biscarbamate], under setting [1], the EC50 was in the range of 1 to 9.9 nM. For `CN(C)[C@@H](C(=O)N1CCC[C@H]1c1ncc(-c2ccc(Oc3cccc(-c4cnc([C@@H]5CCCN5C(=O)[C@@H](c5ccccc5)N(C)C)[nH]4)c3)cc2)[nH]1)c1ccccc1` [OL-4, (1R)-2-((2S)-2-(4-(3-(4-(2-((2S)-1-((2R)-2-(dimethylamino)-2-phenylacetyl)-2-pyrrolidinyl)-1H-imidazol-4-yl)phenoxy)phenyl)-1H-imidazol-2-yl)-1-pyrrolidinyl)-N,N-dimethyl-2-oxo-1-phenylethanamine], the EC50 by setting is: under setting [2], 0.07 nM; under setting [1], 0.002 to 0.099 nM.
